Assay [1] has as its system PTPN2. Nature of the assay: HiBiT-Degradation B16F10.4 PTPN2. Format: cell-based. The settings on record: B16F10.4 cells, 24.0 hours.
Assay [2] has as its target T1, PTPN2 (Homo sapiens, UniProt P17706).
T1 construct: expressed in transfected cells; host or cells: 293T (293T.109 HiBiT-PTPN2 line; parental 293T WT from ATCC)
T1 sequence (P17706 1-415): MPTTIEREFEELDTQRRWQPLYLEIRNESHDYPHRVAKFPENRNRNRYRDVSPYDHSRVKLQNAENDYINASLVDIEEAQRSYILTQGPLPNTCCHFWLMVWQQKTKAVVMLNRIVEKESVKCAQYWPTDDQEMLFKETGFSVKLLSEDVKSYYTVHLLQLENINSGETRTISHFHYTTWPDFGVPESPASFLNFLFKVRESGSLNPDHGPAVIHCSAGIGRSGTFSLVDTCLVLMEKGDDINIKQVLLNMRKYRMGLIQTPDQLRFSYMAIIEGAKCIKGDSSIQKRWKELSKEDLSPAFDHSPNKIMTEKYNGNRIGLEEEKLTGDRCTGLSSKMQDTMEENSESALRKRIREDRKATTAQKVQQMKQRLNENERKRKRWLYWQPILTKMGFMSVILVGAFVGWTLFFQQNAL
Nature of the assay: HiBiT-Degradation 293T.109 PTPN2 (Nano-Glo HiBiT Lytic Assay). The class given is cell-based. To be noted: 293T.109 (HiBiT-PTPN2) cells, 24.0 hours. From the text: Dulbecco's modified Eagle medium (DMEM) without phenol red and fetal bovine serum (FBS) were purchased from Gibco (Grand Island, NY, USA). Nano-Glo® HiBIT Lytic Assay System was purchased from Promega (Madison, WI, USA). 293T.109 (HiBiT-PTPN2) cell line was generated by ectopically expressing PTPN2 with N-terminal HiBiT fusion tag in 293T WT cell line purchased from ATCC (Manassas, VA, USA). Cell culture flasks and 384-well microplates were acquired from VWR (Radnor, PA, USA).
PTPN2 degradation was determined based on quantification of luminescent signal using Nano-Glo® HiBIT Lytic Assay kit. Test compounds were added to the 384-well plate from a top concentration of 10 μM with 11 points, half log titration in duplicates. 293T.109 cells were added into 384-well plates at a cell density of 5000 cells per well. The plates were kept at 37° C. with 5% CO2 for 24 hours. The cells treated in the absence of the test compound were the negative control and the cells without Nano-Glo® HiBiT Lytic reagent were the positive control. After 24-hour incubation, Nano-Glo® HiBIT Lytic Assay reagents were added to the cells. Luminescence was acquired on EnVision™ Multilabel Reader (PerkinElmer, Santa Clara, CA, USA).
In general terms: HiBiT is a short tag that completes a luciferase, so light tracks the accessible tagged protein.

SMILES strings stand for the structures. Some results are limits rather than exact numbers.

In US20240383886A1, “Protein Tyrosine Phosphatase Degraders and Methods of Use Thereof” (CALICO LIFE SCIENCES LLC, priority 2019, published 2024) one finds DC50 data, which are given here for 15 molecules.

The term DC50 denotes the concentration at which degradation of the target reaches its halfway point.

As for `Cn1nc(C2CCC(=O)NC2=O)c2ccc(C3CCN(C4CC(C(=O)Nc5ccc6c(F)c(N7CC(=O)NS7(=O)=O)c(O)cc6c5)C4)CC3(F)F)cc21` (stereo not drawn) [Example 117, N-(6-(1,1-dioxido-4-oxo-1,2,5-thiadiazolidin-2-yl)-5-fluoro-7-hydroxynaphthalen-2-yl)-3-(4-(3-(2,6-dioxopiperidin-3-yl)-1-methyl-1H-indazol-6-yl)-3,3-difluoropiperidin-1-yl)cyclobutanecarboxamide], the DC50 was in the range of 50 to 200 nM in assay [1] and 10 to 50 nM in assay [2].
Consider `Cn1c(=O)n(C2CCC(=O)NC2=O)c2ccc(C3CCN(CCN4CCC(c5ccc6cc(O)c(N7CC(=O)NS7(=O)=O)c(F)c6c5)CC4)CC3)cc21` (stereo not drawn) [Example 123, 3-[5-[1-[2-[4-[8-fluoro-6-hydroxy-7-(1,1,4-trioxo-1,2,5-thiadiazolidin-2-yl)-2-naphthyl]-1-piperidyl]ethyl]-4-piperidyl]-3-methyl-2-oxo-benzimidazol-1-yl]piperidine-2,6-dione], for which the DC50 in assay [1] lay within 50 to 200 nM; in assay [2], 10 to 50 nM.
Consider `Cn1nc(C2CCC(=O)NC2=O)c2ccc(C3CCN(CC(=O)Nc4ccc5c(F)c(N6CC(=O)NS6(=O)=O)c(O)cc5c4)CC3(F)F)cc21` (stereo not drawn) [Example 114, N-(6-(1,1-dioxido-4-oxo-1,2,5-thiadiazolidin-2-yl)-5-fluoro-7-hydroxynaphthalen-2-yl)-2-(4-(3-(2,6-dioxopiperidin-3-yl)-1-methyl-1H-indazol-6-yl)-3,3-difluoropiperidin-1-yl)acetamide], for which the half-maximal degradation concentration (DC50) in assay [1] and in assay [2] was 50 to 200 nM in each case.
On to `CN(c1ccc(C2CCN(CC(=O)Nc3ccc4c(F)c(N5CC(=O)NS5(=O)=O)c(O)cc4c3)CC2)cc1)C1CCC(=O)NC1=O` (stereo not drawn) [Example 108, 2-[4-[4-[(2,6-dioxo-3-piperidyl)-methyl-amino]phenyl]-1-piperidyl]-N-[5-fluoro-7-hydroxy-6-(1,1,4-trioxo-1,2,5-thiadiazolidin-2-yl)-2-naphthyl]acetamide], for which the results for the DC50 in assay [1] and in assay [2] were at least 1000 nM and 200 to 1000 nM, respectively.
On to `O=C(C=Cc1ccc2cc(O)c(N3CC(=O)NS3(=O)=O)c(F)c2c1)NC1CCN(C(=O)COc2cccc3c2CN(C2CCC(=O)NC2=O)C3=O)CC1` (stereo not drawn) [Example 11, 3-(7-(1,1-dioxido-4-oxo-1,2,5-thiadiazolidin-2-yl)-8-fluoro-6-hydroxynaphthalen-2-yl)-N-(1-(2-((2-(2,6-dioxopiperidin-3-yl)-1-oxoisoindolin-4-yl)oxy)acetyl)piperidin-4-yl)acrylamide], for which the 50% degradation concentration (DC50) in assay [1] and in assay [2] was 200 to 1000 nM in each case.
On to `Cn1c(=O)n(C2CCC(=O)NC2=O)c2ccc(C3CCN([C@@H](CO)C(=O)Nc4ccc5c(F)c(N6CC(=O)NS6(=O)=O)c(O)cc5c4)CC3)cc21` (stereo partly drawn) [Example 184, (2S)—N-(6-(1,1-dioxido-4-oxo-1,2,5-thiadiazolidin-2-yl)-5-fluoro-7-hydroxynaphthalen-2-yl)-2-(4-(1-(2,6-dioxopiperidin-3-yl)-3-methyl-2-oxo-2,3-dihydro-1H-benzo[d]imidazol-5-yl)piperidin-1-yl)-3-hydroxypropanamide], for which the DC50 was 50 to 200 nM in assay [1] and 10 to 50 nM in assay [2].
Turning to `Cn1nc([C@H]2CCC(=O)NC2=O)c2ccc(N3CCC(CC(=O)Nc4ccc5c(F)c(N6CC(=O)NS6(=O)=O)c(O)cc5c4)CC3)cc21` [Example 164, 2-[1-[3-[(3R)-2,6-dioxo-3-piperidyl]-1-methyl-indazol-6-yl]-4-piperidyl]-N-[5-fluoro-7-hydroxy-6-(1,1,4-trioxo-1,2,5-thiadiazolidin-2-yl)-2-naphthyl]acetamide], the results for the half-maximal degradation concentration (DC50) in assay [1] and in assay [2] were 50 to 200 nM and 10 to 50 nM, respectively.
`O=C1CCC(N2C(=O)c3cccc(NCc4cn(CCC(=O)Nc5ccc6c(Cl)c(N7CC(=O)NS7(=O)=O)c(O)cc6c5)nn4)c3C2=O)C(=O)N1` (stereo not drawn) [Example 69]: the DC50 in assay [1] and in assay [2] was at least 1000 nM throughout.
Regarding `Cn1c(=O)n(C2CCC(=O)NC2=O)c2ccc(C3CCN(CC(=O)N4CCC[C@@H](COc5ccc6cc(O)c(N7CC(=O)NS7(=O)=O)c(F)c6c5)C4)CC3)cc21` (stereo partly drawn) [Example 130, 3-[5-[1-[2-[(3R)-3-[[8-fluoro-6-hydroxy-7-(1,1,4-trioxo-1,2,5-thiadiazolidin-2-yl)-2-naphthyl]oxymethyl]-1-piperidyl]-2-oxo-ethyl]-4-piperidyl]-3-methyl-2-oxo-benzimidazol-1-yl]piperidine-2,6-dione], the 50% degradation concentration (DC50) in assay [1] and in assay [2] was 50 to 200 nM throughout.
Take `Cn1c(=O)n(C2CCC(=O)NC2=O)c2ccc(-c3ccc(CCC(=O)Nc4ccc5c(F)c(N6CC(=O)NS6(=O)=O)c(O)cc5c4)cc3)cc21` (stereo not drawn) [Example 116, N-(6-(1,1-dioxido-4-oxo-1,2,5-thiadiazolidin-2-yl)-5-fluoro-7-hydroxynaphthalen-2-yl)-3-(4-(1-(2,6-dioxopiperidin-3-yl)-3-methyl-2-oxo-2,3-dihydro-1H-benzo[d]imidazol-5-yl)phenyl)propanamide]: the 50% degradation concentration (DC50) in assay [1] and in assay [2] was 50 to 200 nM throughout.
Regarding `Cn1c(=O)n(C2CCC(=O)NC2=O)c2ccc(C3CCN(CC(=O)NCCOc4ccc5cc(O)c(N6CC(=O)NS6(=O)=O)c(F)c5c4)CC3(F)F)cc21` (stereo not drawn) [Example 140, 2-[4-[1-(2,6-dioxo-3-piperidyl)-3-methyl-2-oxo-benzimidazol-5-yl]-3,3-difluoro-1-piperidyl]-N-[2-[[8-fluoro-6-hydroxy-7-(1,1,4-trioxo-1,2,5-thiadiazolidin-2-yl)-2-naphthyl]oxy]ethyl]acetamide], the figures for the DC50 in assay [1] and in assay [2] were at least 1000 nM and 50 to 200 nM, respectively.
Turning to `Cn1c(=O)n(C2CCC(=O)NC2=O)c2ccc(C3CCN(CC4CC4C(=O)Nc4ccc5c(F)c(N6CC(=O)NS6(=O)=O)c(O)cc5c4)CC3)cc21` (stereo not drawn) [Example 176, N-(6-(1,1-dioxido-4-oxo-1,2,5-thiadiazolidin-2-yl)-5-fluoro-7-hydroxynaphthalen-2-yl)-2-((4-(1-(2,6-dioxopiperidin-3-yl)-3-methyl-2-oxo-2,3-dihydro-1H-benzo[d]imidazol-5-yl)piperidin-1-yl)methyl)cyclopropane-1-carboxamide], the DC50 lay within 50 to 200 nM in assay [1] and 10 to 50 nM in assay [2].
`Cn1c(=O)n(C2CCC(=O)NC2=O)c2ccc(C3CCN(C(=O)CNc4ccc5c(F)c(N6CC(=O)NS6(=O)=O)c(O)cc5c4)CC3)cc21` (stereo not drawn) [Example 54]: the results for the DC50 in assay [1] and in assay [2] were at least 1000 nM and 200 to 1000 nM, respectively.
As to `O=C1CCC(Nc2ccc(C3CCN(CC(=O)Nc4ccc5c(F)c(N6CC(=O)NS6(=O)=O)c(O)cc5c4)CC3)c(F)c2)C(=O)N1` (stereo not drawn) [Example 55], the figures for the DC50 in assay [1] and in assay [2] were at least 1000 nM and 200 to 1000 nM, respectively.
With `O=C(CCCCOc1ccc2cc(O)c(N3CC(=O)NS3(=O)=O)c(F)c2c1)NCCCc1ccc2c3c(cccc13)C(=O)N2C1CCC(=O)NC1=O` (stereo not drawn) [Example 111, N-[3-[1-(2,6-dioxo-3-piperidyl)-2-oxo-benzo[cd]indol-6-yl]propyl]-5-[[8-fluoro-6-hydroxy-7-(1,1,4-trioxo-1,2,5-thiadiazolidin-2-yl)-2-naphthyl]oxy]pentanamide], the DC50 in assay [1] fell in the range of 50 to 200 nM; in assay [2], 10 to 50 nM.
